According to patent publication US9862711B2, “Pyrazine derivatives as phosphatidylinositol 3-kinase inhibitors” (NOVARTIS AG, priority 2014, dated 2018):
pIC50: −log10 of the molar value.

Key:
[1] = target: PI 3-kinase alpha (Homo sapiens (Human), UniProt P42336); test: Kinase Glo Luminescent Kinase Assay (Assay A); type: biochemical; conditions: 1 μM ATP, read-out: Assay A PI3Kα IC50
Excerpt: Kinase Glo Luminescent Kinase Assay (Kglo) for PI 3-Kinase Alpha (A), Pb 3-Kinase Beta (B), Vps34 (C), PI 4-Kinase Beta (D)
The luminescence-based ATP detection reagent KinaseGlo was obtained from Promega, (Cat. No. V6714, Lot No. 236161) through Catalys, Wallisellen, Switzerland. L-alpha-phosphatidylinositol (PI, liver, bovine) was obtained from Avanti Polar Lipid (Cat. No. 840042C, Lot#LPI-274), Phosphatidylinositol-4,5-bisphosphate (PIP(4,5)2) was also obtained from Avanti Polar Lipid (Cat. No. 840046X). L-α-Phosphatidylserine (PS) was obtained from Avanti Polar Lipid (Cat. No. 840032C), n-Octylglucoside from Avanti Polar Lipid (Cat. No. 10634425001). Luminescence is a well established readout to determine ATP concentrations and can thus be used to follow the activity of many kinases regardless of their substrate. The Kinase Glo Luminescent Kinase Assay (Promega, Madison/WI, USA) is a homogeneous HTS method of measuring kinase activity by quantifying the amount of ATP remaining in solution following a kinase reaction.
50 nL of compound dilutions were dispensed onto black 384-well low volume Non Binding Styrene (NBS) plates (Costar Cat. No. NBS#3676). L-α-phosphatidylinositol (PI), provided as 10 mg/ml solution in methanol, was transferred into a glass tube and dried under a nitrogen beam. It was then resuspended in 3% OctylGlucoside (1-O-n-octyl-beta-D-glucopyranoside) by vortexing and stored at 4° C. 5 μL of a mix of PI/OctylGlucoside with the PI 3-kinase alpha and PI 3-kinase beta subtypes, or Vps34 or PI 4-kinase beta were added. Kinase reactions were started by the addition of 5 μl of an ATP-mix containing in a final volume 10 μL 10 mM TRIS-HCl pH 7.5, 3 mM MgCl2, 50 mM NaCl, 0.05% CHAPS, 1 mM DTT and 1 μM ATP at room temperature. Reactions were stopped with 10 μl of KinaseGlo and plates were read 10 mins later in a Synergy2 reader using an integration time of 0.1 seconds per well. 2.5 μM of NVP-BGT226 (1-(3-(trifluoromethyl)-4-(piperazin-1-yl)phenyl)-8-(6-methoxypyridin-3-yl)-3-methyl-1H-imidazo[4,5-c]quinolin-2(3H)-one) was added to the assay plates to generate the 100% inhibition of the kinase reaction, and the 0% inhibition was given by the solvent vehicle (90% DMSO in water). (1-(3-(trifluoromethyl)-4-(piperazin-1-yl)phenyl)-8-(6-methoxypyridin-3-yl)-3-methyl-1H-imidazo[4,5-c]quinolin-2(3H)-one) was used as a reference compound and included in all assay plates in the form of 16 dilution points in duplicate.
IC50 values of the percentage inhibition of each compound at 8 concentrations (10, 3.0, 1.0, 0.3, 0.1, 0.030, 0.010 and 0.003 μM) n=2 were derived by fitting a sigmoidal dose-response curve to a plot of assay readout over inhibitor concentration as described. All fits were performed with the program XLfit4 (ID Business Solutions, Guildford, UK).

[2] = tested on: IL-8-induced neutrophil shape change in human whole blood; test: Whole blood neutrophil shape change assay (Assay L); type: cell-based; conditions: 2 nM IL-8, neutrophil shape change by flow cytometry, read-out: Assay L WBSC IC50
Description: Whole Blood Neutrophil Shape Change Assay (L)
A flow cytometry based method used to measure the inhibition of IL-8 (interleukin-8)-induced neutrophil shape change in human whole blood.
IL-8 was made up to 2 μM stocks in 0.1% bovine serum albumin/PBS and stored at −80° C. On the day IL-8 was diluted in PBS (phosphate buffered saline) 10 minutes before use. IL-8 was used at final concentration of 2 nM and a concentration range from […] to 200 nM for the donor dose response curve.
Assay fixative solution was prepared fresh each day from 10× concentrated CellFIX™ solution diluted 1:10 in sterile distilled water and then 1:4 with PBS. Assay fixative solution was kept on ice prior to use.
A 10× lysis buffer was prepared in advance by dissolving 20.75 g […] and 2.5 g KHCO3 in 250 ml sterile H2O. This 10× lysis buffer was filtered under sterile conditions and stored for up to two weeks at 4° C. On the day a 1× lysis solution was prepared with sterile distilled H2O and kept on ice prior to use.
The test compounds were prepared as 10 mM stock solutions in 100% DMSO and were stored at 4° C. Once in use for an assay 10 mM stock compounds were thawed and stored at RT protected from light. Compound dilutions were prepared fresh on the day. The first series of dilutions in 100% DMSO were done first thing in the morning. Only once blood had been collected and arrived in laboratory was the next set of dilutions into PBS carried out (1:10 PBS, 10% DMSO). This limited the exposure of diluted compound to plastic and made sure the exposure timing was consistent between assays. Compounds were added to the deep 96 well plates at 10× the final desired concentration (with addition of blood final [DMSO]=1%).
Table 3 illustrates the compound dilution series used in human whole blood neutrophil shape change assay.
On the day of running the assay, assay fixative buffer and 1× lysis solutions were prepared and stored on ice. Compound dilutions in 100% DMSO were prepared as described previously. Human whole blood was collected in K2 EDTA Vacutainers. Once blood was in the laboratory, compound dilutions into PBS were carried out as described previously and depicted in Table 1. 10 μl of 10× final compound concentration was added to appropriate wells of a deep 96-well plate except controls where 10 μl of 10% DMSO was added in place of compound, as outlined in the dilution series in Table 1. The outer wells of the deep well assay plate were filled with 1200 μl of sterile distilled H2O in an effort to limit edge effects (rows A1-H1, A1-A12, A12-H12). An IL-8 dose response was determined for each blood donor examined, to monitor the donor response to IL-8. At this step in assay preparation for the IL-8 dose response samples 10 μl of PBS was added to designated wells. In addition the assay window without DMSO was also assessed each day. For such samples at this step in assay preparation 10 μl of PBS was added in the place of 10% DMSO.
80 μl of whole blood was added to compound/10% DMSO/PBS and mixed once gently upon addition. Lids were placed on the 96 well plates and samples were incubated for 15 minutes at 37° C. in a water-bath.
Following the compound pre-incubation 10× final IL-8 was added to appropriate wells (10 μl of 20 nM working stock IL-8, final IL-8 concentration in blood=2 nM) and 10 μl of PBS was added to the un-stimulated controls. 10× final dose response range IL-8 was also added to designated wells (final concentration range on assay plate was 200 nM to 0.0005 nM, 1:5 serial dilution in PBS). The IL-8 and PBS were added to appropriate wells across all assay plates in the same sequence as the blood to compound addition. Once added to all assay plates, samples were mixed quickly once to ensure even distribution of IL-8. Samples were incubated for 5 minutes at 37° C. in a water-bath. Following the incubation sample plates were transferred to ice where 250 μl of chilled Assay Fixative Buffer was added promptly to all wells. […]

Sequence of PI 3-kinase alpha (P42336 21-1068): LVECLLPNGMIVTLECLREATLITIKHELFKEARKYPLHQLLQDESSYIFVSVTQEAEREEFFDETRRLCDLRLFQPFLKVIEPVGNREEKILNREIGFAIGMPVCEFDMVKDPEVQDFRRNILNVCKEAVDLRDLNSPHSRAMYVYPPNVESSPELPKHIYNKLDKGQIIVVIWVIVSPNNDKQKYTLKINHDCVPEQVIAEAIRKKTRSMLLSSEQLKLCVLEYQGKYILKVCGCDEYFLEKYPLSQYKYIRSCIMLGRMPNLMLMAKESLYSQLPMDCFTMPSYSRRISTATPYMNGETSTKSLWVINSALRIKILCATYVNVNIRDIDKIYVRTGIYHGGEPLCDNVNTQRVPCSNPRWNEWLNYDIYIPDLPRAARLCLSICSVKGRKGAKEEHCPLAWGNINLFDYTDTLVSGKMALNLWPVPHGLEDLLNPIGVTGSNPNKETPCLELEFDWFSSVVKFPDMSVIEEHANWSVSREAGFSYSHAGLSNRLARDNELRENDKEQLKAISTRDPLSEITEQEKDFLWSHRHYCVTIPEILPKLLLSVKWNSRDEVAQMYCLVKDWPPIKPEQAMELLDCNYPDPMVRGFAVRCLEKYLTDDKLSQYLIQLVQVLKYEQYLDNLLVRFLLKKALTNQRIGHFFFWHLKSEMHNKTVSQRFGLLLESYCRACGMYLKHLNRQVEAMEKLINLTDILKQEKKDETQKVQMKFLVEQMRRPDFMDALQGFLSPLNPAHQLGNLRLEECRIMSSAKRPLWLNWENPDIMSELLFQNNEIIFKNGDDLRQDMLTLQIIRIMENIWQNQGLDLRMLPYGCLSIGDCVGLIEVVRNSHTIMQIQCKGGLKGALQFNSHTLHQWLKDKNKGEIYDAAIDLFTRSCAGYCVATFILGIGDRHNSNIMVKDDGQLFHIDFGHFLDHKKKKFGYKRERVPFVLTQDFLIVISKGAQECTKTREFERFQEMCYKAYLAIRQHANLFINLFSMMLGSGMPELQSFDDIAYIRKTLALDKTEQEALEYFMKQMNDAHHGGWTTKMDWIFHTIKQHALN

Compound: Cc1ccc(S(=O)(=O)NCCC(C)(C)O)cc1-c1cncc(-c2cn(C)nc2C)n1 [Example 3, 3-[6-(1,3-Dimethyl-1H-pyrazol-4-yl)-pyrazin-2-yl]-N-(3-hydroxy-3-methyl-butyl)-4-methyl-benzenesulfonamide]
- pIC50 [1]: 7.10
- pIC50 [2]: 5.97

Compound: Cc1ncc(-c2cncc(-c3cc(S(=O)(=O)N[C@H]4CC[C@H](O)CC4)ccc3C)n2)s1 [Example 5, Trans N-(4-Hydroxycyclohexyl)-4-methyl-3-(6-(2-methylthiazol-5-yl)pyrazin-2-yl)benzenesulfonamide]
- pIC50 [1]: 6.82
- pIC50 [2]: 6.75

Compound: Cc1ccc(S(=O)(=O)NCC2(C)COC2)cc1-c1cncc(-c2cn(C)nc2C)n1 [Example 4, Trans 3-[6-(1,3-Dimethyl-1H-pyrazol-4-yl)-pyrazin-2-yl]-4-methyl-N-(3-methyl-oxetan-3-ylmethyl)-benzenesulfonamide]
- pIC50 [1]: 7.22
- pIC50 [2]: 6.26

Compound: Cc1ccc(S(=O)(=O)NCC(C)(C)O)cc1-c1cncc(-c2cn(C)nc2C)n1 [Example 2, 3-[6-(1,3-Dimethyl-1H-pyrazol-4-yl)-pyrazin-2-yl]-N-(2-hydroxy-2-methyl-propyl)-4-methyl-benzenesulfonamide]
- pIC50 [1]: 7.30
- pIC50 [2]: 6.58

Compound: Cc1ccc(S(=O)(=O)N[C@H]2CC[C@H](O)CC2)cc1-c1cncc(-c2cccnc2)n1 [Example 11, Trans N-(4-Hydroxy-cyclohexyl)-4-methyl-3-(6-pyridin-3-yl-pyrazin-2-yl)-benzenesulfonamide]
- pIC50 [1]: 6.40
- pIC50 [2]: 6.12

Compound: Cc1ccc(S(=O)(=O)NCCC(C)(C)O)cc1-c1cncc(-c2cn(CCN3CCOCC3)nc2C)n1 [Example 10, N-(3-Hydroxy-3-methyl-butyl)-4-methyl-3-{6-[3-methyl-1-(2-morpholin-4-yl-ethyl)-1H-pyrazol-4-yl]-pyrazin-2-yl}-benzenesulfonamide]
- pIC50 [1]: 7.15
- pIC50 [2]: 6.18

Compound: Cc1ccc(S(=O)(=O)NCCC(C)(C)O)cc1-c1cncc(-c2cnn(CCN3CCOCC3)c2)n1 [Example 9, N-(3-Hydroxy-3-methyl-butyl)-4-methyl-3-{6-[1-(2-morpholin-4-yl-ethyl)-1H-pyrazol-4-yl]-pyrazin-2-yl}-benzenesulfonamide]
- pIC50 [1]: 6.59
- pIC50 [2]: 6.22

Compound: Cc1ncc(-c2cncc(-c3cc(S(=O)(=O)NCCCO)ccc3C)n2)s1 [Example 1, N-(3-Hydroxy-propyl)-4-methyl-3-[6-(2-methyl-thiazol-5-yl)-pyrazin-2-yl]-benzenesulfonamide]
- pIC50 [1]: 6.72
- pIC50 [2]: 5.88

Compound: Cc1ccc(S(=O)(=O)NCC(C)(C)CO)cc1-c1cncc(-c2cn(C)nc2C)n1 [Example 8, 3-[6-(1,3-Dimethyl-1H-pyrazol-4-yl)-pyrazin-2-yl]-N-(3-hydroxy-2,2-dimethyl-propyl)-4-methyl-benzenesulfonamide]
- pIC50 [1]: 7.22
- pIC50 [2]: 6.20
